From US10405547B2, “Substituted cyclic amides as herbicides” (FMC Corporation, priority 2015, dated 2019)

How the values were obtained:
Type in all cases: in vivo
[1] = system: barnyardgrass (Echinochloa crus-galli); test: Test B flooded paddy test, barnyardgrass; conditions: 250 g ai/ha, applied to paddy water, visual rating after 13 to 15 days, scale 0 (no effect) to 100 (complete control)
Method in brief: (§1)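 Flooded 3 cm over soil; compound into paddy water; depth kept constant. Greenhouse 13–15 d.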

kochia (Kochia scoparia) [2] = test: Test A preemergence, kochia; conditions: 0 to 100 scale (0 no effect, 100 complete control)
Method in brief: (§2)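 Visual injury on a 0 to 100 scale, about 10 days post-spray in the greenhouse. Postemergence plants measured 2–10 cm at one to two leaves; preemergence pots received a directed soil spray. Soil was a loam–sand blend.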

[3] = system: foxtail, giant (Setaria faberii); test: Test A preemergence, giant foxtail; conditions: 0 to 100 scale (0 no effect, 100 complete control)
Method in brief: as §2

[4] = system: wheat (Triticum aestivum); test: Test A postemergence, wheat; conditions: visual injury, 0 to 100 scale (0 no effect, 100 complete control), approximately 10 days
Method in brief: as §2

[5] = system: barnyardgrass (Echinochloa crus-galli); test: Test A preemergence, barnyardgrass; conditions: 0 to 100 scale (0 no effect, 100 complete control)
Method in brief: as §2

kochia (Kochia scoparia) [6] = test: Test A postemergence, kochia; conditions: visual injury, 0 to 100 scale (0 no effect, 100 complete control), approximately 10 days
Method in brief: as §2

[7] = system: ragweed (common ragweed, Ambrosia elatior); test: Test A preemergence, ragweed; conditions: 0 to 100 scale (0 no effect, 100 complete control)
Method in brief: as §2

[8] = system: ryegrass, Italian (Lolium multiflorum); test: Test A postemergence, Italian ryegrass; conditions: visual injury, 0 to 100 scale (0 no effect, 100 complete control), approximately 10 days
Method in brief: as §2

[9] = system: pigweed (Amaranthus retroflexus); test: Test A preemergence, pigweed; conditions: 0 to 100 scale (0 no effect, 100 complete control)
Method in brief: as §2

[10] = system: ragweed (common ragweed, Ambrosia elatior); test: Test A postemergence, ragweed; conditions: visual injury, 0 to 100 scale (0 no effect, 100 complete control), approximately 10 days
Method in brief: as §2

[11] = system: foxtail, giant (Setaria faberii); test: Test A postemergence, giant foxtail; conditions: visual injury, 0 to 100 scale (0 no effect, 100 complete control), approximately 10 days
Method in brief: as §2

corn (Zea mays) = test: Test A postemergence, corn; conditions: visual injury, 0 to 100 scale (0 no effect, 100 complete control), approximately 10 days
Method in brief: as §2

[12] = system: sedge, umbrella (small-flower umbrella sedge, Cyperus difformis); test: Test B flooded paddy test, umbrella sedge; conditions: 250 g ai/ha, applied to paddy water, visual rating after 13 to 15 days, scale 0 (no effect) to 100 (complete control)
Method in brief: as §1

rice (Oryza sativa) = test: Test B flooded paddy test, rice; conditions: 250 g ai/ha, applied to paddy water, visual rating after 13 to 15 days, scale 0 (no effect) to 100 (complete control)
Method in brief: as §1

[13] = system: pigweed (Amaranthus retroflexus); test: Test A postemergence, pigweed; conditions: visual injury, 0 to 100 scale (0 no effect, 100 complete control), approximately 10 days
Method in brief: as §2

[14] = system: galium (catchweed bedstraw, Galium aparine); test: Test A postemergence, galium; conditions: visual injury, 0 to 100 scale (0 no effect, 100 complete control), approximately 10 days
Method in brief: as §2

[15] = system: blackgrass (Alopecurus myosuroides); test: Test A postemergence, blackgrass; conditions: visual injury, 0 to 100 scale (0 no effect, 100 complete control), approximately 10 days
Method in brief: as §2

[16] = system: barnyardgrass (Echinochloa crus-galli); test: Test A postemergence, barnyardgrass; conditions: visual injury, 0 to 100 scale (0 no effect, 100 complete control), approximately 10 days
Method in brief: as §2

[17] = system: ducksalad (Heteranthera limosa); test: Test B flooded paddy test, ducksalad; conditions: 250 g ai/ha, applied to paddy water, visual rating after 13 to 15 days, scale 0 (no effect) to 100 (complete control)
Method in brief: as §1

[18] = system: ryegrass, Italian (Lolium multiflorum); test: Test A preemergence, Italian ryegrass; conditions: 0 to 100 scale (0 no effect, 100 complete control)
Method in brief: as §2

| Structure (SMILES) | Plant response rating, Barnyardgrass (Flood) [1] | Plant response rating, Foxtail, Giant ([3]; 125 g ai/ha) | Plant response rating, Foxtail, Giant ([3]; 500 g ai/ha) | Plant response rating, Wheat ([4]; 125 g ai/ha) | Plant response rating, Wheat ([4]; 500 g ai/ha) | Plant response rating, Barnyardgrass ([5]; 125 g ai/ha) | Plant response rating, Barnyardgrass ([5]; 500 g ai/ha) | Plant response rating, Kochia (kochia (Kochia scoparia) [6]; 125 g ai/ha) | Plant response rating, Kochia (kochia (Kochia scoparia) [6]; 500 g ai/ha) | Plant response rating, Ragweed ([7]; 125 g ai/ha) | Plant response rating, Ragweed ([7]; 500 g ai/ha) | Plant response rating, Ryegrass, Italian ([8]; 125 g ai/ha) | Plant response rating, Ryegrass, Italian ([8]; 500 g ai/ha) | Plant response rating, Pigweed ([9]; 125 g ai/ha) | Plant response rating, Pigweed ([9]; 500 g ai/ha) | Plant response rating, Ragweed ([10]; 125 g ai/ha) | Plant response rating, Ragweed ([10]; 500 g ai/ha) | Plant response rating, Foxtail, Giant ([11]; 125 g ai/ha) | Plant response rating, Foxtail, Giant ([11]; 500 g ai/ha) | Plant response rating, Corn (corn (Zea mays); 125 g ai/ha) | other results |
| --- | --- | --- | --- | --- | --- | --- | --- | --- | --- | --- | --- | --- | --- | --- | --- | --- | --- | --- | --- | --- | --- |
| O=C1NCC(c2ccccc2Cn2ccc(C(F)(F)F)n2)C1C(=O)Nc1cccc(F)c1F (stereo not shown) [Compound 57] | 0 | 60 | 90 | 0 | 0 | 40 | 90 | 0 | 20 | 0 | 0 | 0 | 0 | 0 | 0 | 0 | 30 | 40 | 70 | 30 | Plant response rating, Kochia (kochia (Kochia scoparia) [2]; 500 g ai/ha): 0; Plant response rating, Corn (corn (Zea mays); 500 g ai/ha): 30; Plant response rating, Sedge, Umbrella (Flood) [12]: 0; Plant response rating, Rice (Flood) (rice (Oryza sativa)): 0; Plant response rating, Pigweed ([13]; 125 g ai/ha): 0; Plant response rating, Pigweed ([13]; 500 g ai/ha): 20; Plant response rating, Galium ([14]; 125 g ai/ha): 0; Plant response rating, Galium ([14]; 500 g ai/ha): 20; Plant response rating, Blackgrass ([15]; 125 g ai/ha): 0; Plant response rating, Blackgrass ([15]; 500 g ai/ha): 30; Plant response rating, Barnyardgrass ([16]; 125 g ai/ha): 0; Plant response rating, Barnyardgrass ([16]; 500 g ai/ha): 60; Plant response rating, Ducksalad (Flood) [17]: 0; Plant response rating, Ryegrass, Italian ([18]; 125 g ai/ha): 0; Plant response rating, Ryegrass, Italian ([18]; 500 g ai/ha): 0 |
| O=C1NCC(c2ccccc2Cn2ccc(C(F)(F)F)n2)C1C(=O)Nc1ccc(F)c(F)c1F (stereo not shown) [Compound 58] | 0 | 60 | 90 | 0 | 0 | 30 | 90 | 0 | 20 | 0 | 0 | 0 | 0 | 0 | 0 | 0 | 0 | 30 | 60 | 0 | Plant response rating, Kochia (kochia (Kochia scoparia) [2]; 125 g ai/ha): 0; Plant response rating, Corn (corn (Zea mays); 500 g ai/ha): 0; Plant response rating, Sedge, Umbrella (Flood) [12]: 0; Plant response rating, Rice (Flood) (rice (Oryza sativa)): 0; Plant response rating, Pigweed ([13]; 125 g ai/ha): 0; Plant response rating, Pigweed ([13]; 500 g ai/ha): 0; Plant response rating, Galium ([14]; 125 g ai/ha): 0; Plant response rating, Galium ([14]; 500 g ai/ha): 20; Plant response rating, Blackgrass ([15]; 125 g ai/ha): 0; Plant response rating, Blackgrass ([15]; 500 g ai/ha): 0; Plant response rating, Barnyardgrass ([16]; 125 g ai/ha): 0; Plant response rating, Barnyardgrass ([16]; 500 g ai/ha): 60; Plant response rating, Ducksalad (Flood) [17]: 0; Plant response rating, Ryegrass, Italian ([18]; 125 g ai/ha): 0; Plant response rating, Ryegrass, Italian ([18]; 500 g ai/ha): 20 |
| O=C1NCC(c2ccccc2Cn2ccc(C(F)(F)F)n2)C1C(=O)Nc1ccccc1F (stereo not shown) [Compound 59] | 0 | 0 | 50 | 0 | 0 | 0 | 40 | 0 | 0 | 0 | 0 | 0 | 0 | 0 | 0 | 0 | 0 | 0 | 20 | 0 | Plant response rating, Kochia (kochia (Kochia scoparia) [2]; 125 g ai/ha): 0; Plant response rating, Kochia (kochia (Kochia scoparia) [2]; 500 g ai/ha): 0; Plant response rating, Corn (corn (Zea mays); 500 g ai/ha): 0; Plant response rating, Sedge, Umbrella (Flood) [12]: 0; Plant response rating, Rice (Flood) (rice (Oryza sativa)): 0; Plant response rating, Pigweed ([13]; 125 g ai/ha): 0; Plant response rating, Pigweed ([13]; 500 g ai/ha): 0; Plant response rating, Galium ([14]; 125 g ai/ha): 0; Plant response rating, Galium ([14]; 500 g ai/ha): 0; Plant response rating, Blackgrass ([15]; 125 g ai/ha): 0; Plant response rating, Blackgrass ([15]; 500 g ai/ha): 0; Plant response rating, Barnyardgrass ([16]; 125 g ai/ha): 0; Plant response rating, Barnyardgrass ([16]; 500 g ai/ha): 30; Plant response rating, Ducksalad (Flood) [17]: 0; Plant response rating, Ryegrass, Italian ([18]; 125 g ai/ha): 0; Plant response rating, Ryegrass, Italian ([18]; 500 g ai/ha): 0 |
